These results are taken from US11512053B2, “Arginine methyltransferase inhibitors and uses thereof” (priority 2013, dated 2022).

For orientation: IC50 means the concentration that gives 50% inhibition.

The target of this test is full-length human PRMT6 (Flag- and His-tagged) (Homo sapiens, UniProt Q96LA8). As to the kind of experiment: PRMT6 Biochemical Assay (3H-SAM Flashplate, peptide substrate). The following applies: read-out: Biochemical IC50 PRMT6. The essentials:
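Radiometric methyltransferase readout: tritium transfer onto a biotin-tagged histone H4 36-50 peptide bearing monomethyl K44 (75 nM), captured on streptavidin Flashplates after stopping with 400 uM unlabeled SAM. Enzyme is baculovirus-expressed Flag-PRMT6-His at 1 nM, given 30 min with compound at room temperature before adding 200 nM 3H-SAM and 250 nM cold SAM (pH 7.6 Bicine, 2% DMSO). Percent inhibition relative to max/min (1 mM SAH) controls, curve-fit to IC50.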

Setting [1] is: single experiment or average of multiple experiments.

Like-named read-outs stand apart in the source and are kept apart here.

Chain of full-length human PRMT6 (Flag- and His-tagged) (Q96LA8 with tags, fused parts or gaps): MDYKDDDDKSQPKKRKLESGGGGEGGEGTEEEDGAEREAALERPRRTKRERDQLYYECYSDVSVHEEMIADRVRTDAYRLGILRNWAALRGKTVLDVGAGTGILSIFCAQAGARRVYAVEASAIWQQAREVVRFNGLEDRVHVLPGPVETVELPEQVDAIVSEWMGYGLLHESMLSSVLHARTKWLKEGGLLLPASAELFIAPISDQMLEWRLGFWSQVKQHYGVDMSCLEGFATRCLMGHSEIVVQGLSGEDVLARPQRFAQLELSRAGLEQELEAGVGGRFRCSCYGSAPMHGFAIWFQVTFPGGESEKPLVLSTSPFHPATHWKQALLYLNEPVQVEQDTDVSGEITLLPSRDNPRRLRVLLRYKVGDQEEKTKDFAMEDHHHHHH

As for `CNCCN(C)Cc1c[nH]nc1C#Cc1cccc(OC)c1` [Compound 1], the 50% inhibitory concentration (IC50) under setting [1] was determined as 70 nM.

As to `CNCCN(C)Cc1c[nH]nc1C#Cc1ccc(C(C)(C)C)cc1` [Compound 2], under setting [1], the IC50 turned out to be 40 nM.

With `CNCCN(C)Cc1c[nH]nc1C#Cc1ccc(F)cc1` [Compound 4], the IC50 under setting [1] was found to be 20 nM.

On to `CNCCN(C)Cc1c[nH]nc1/C=C/c1ccc(C(F)(F)F)cc1` [Compound 6], for which, under setting [1], the IC50 amounted to 30 nM.

With `CNCCN(C)Cc1c[nH]nc1/C=C/c1ccc(OC)cc1` [Compound 7], under setting [1], the IC50 was determined as 20 nM.

Regarding `Cc1ccc(/C=C/c2n[nH]cc2CN(C)CCN)cc1` [Compound 8], under setting [1], the IC50 worked out at 40 nM.

Regarding `CN(CCN)Cc1c[nH]nc1C1=CCOCC1` [Compound 10], under setting [1], the IC50 is 310 nM.

For `COc1cc(/C=C/c2n[nH]cc2CN(C)CCN)cc(OC)c1` [Compound 11], the IC50 under setting [1] turned out to be 50 nM.

For the compound `CN(CCN)Cc1c[nH]nc1C1CC1` [Compound 12], the IC50 under setting [1] was 1080 nM.

Regarding `CN(CCN)Cc1c[nH]nc1/C=C/c1ccc(F)cc1F` [Compound 13], the IC50 under setting [1] stood at 10 nM.

As to `CN(CCN)Cc1c[nH]nc1/C=C/c1cc(C(F)(F)F)cc(C(F)(F)F)c1` [Compound 14], under setting [1], the IC50 is 930 nM.

Regarding `CN(CCN)Cc1c[nH]nc1/C=C/c1cc(F)cc(F)c1` [Compound 15], the IC50 under setting [1] came to 40 nM.

For `CN(CCN)Cc1c[nH]nc1/C=C/c1cccc(C(F)(F)F)c1` [Compound 16], the IC50 under setting [1] came out at 150 nM.

For `COc1cccc(/C=C/c2n[nH]cc2CN(C)CCN)c1` [Compound 17], under setting [1], the IC50 came to 50 nM.

On to `CN(CCN)Cc1c[nH]nc1/C=C/c1ccc(C(F)(F)F)cc1` [Compound 18], for which the IC50 under setting [1] was determined as 10 nM.

Turning to `COC/C=C/c1n[nH]cc1CN(C)CCN` [Compound 19], the IC50 under setting [1] was found to be 170 nM.

Turning to `CN(CCN)Cc1c[nH]nc1/C=C/c1cccc(F)c1` [Compound 20], the 50% inhibitory concentration (IC50) under setting [1] amounted to 20 nM.

On to `CC(C)c1n[nH]cc1CN(C)CCN` [Compound 21], for which the IC50 under setting [1] stood at 670 nM.

For `CN(CCN)Cc1c[nH]nc1C1CCCCC1` [Compound 22], the concentration for half-maximal inhibition (IC50) under setting [1] turned out to be 20 nM.

On to `CN(CCN)Cc1c[nH]nc1CCc1ccc(F)cc1` [Compound 23, N^1-((3-(4-fluorophenethyl)-1H-pyrazol-4-yl)methyl)-N^1-methylethane-1,2-diamine], for which, under setting [1], the IC50 was found to be 10 nM.

For `CN(CCN)Cc1c[nH]nc1/C=C/Cc1ccccc1` [Compound 24], under setting [1], the IC50 was 180 nM.

With `CN(CCN)Cc1c[nH]nc1C1=CCCC1` [Compound 25], under setting [1], the IC50 turned out to be 290 nM.

`CN(CCN)Cc1c[nH]nc1C1CCC1` [Compound 26]: the IC50 under setting [1] worked out at 510 nM.

Take `CN(CCN)Cc1c[nH]nc1C(C)(C)C` [Compound 27]: the IC50 under setting [1] came to 2410 nM.

With `CC(C)Cc1n[nH]cc1CN(C)CCN` [Compound 28, N^1-((3-iso-butyl-1H-pyrazol-4-yl)methyl)-N^1-methylethane-1,2-diamine], the IC50 under setting [1] is 80 nM.

`CCCc1n[nH]cc1CN(C)CCN` [Compound 29]: the IC50 under setting [1] was 290 nM.

Consider `Cc1n[nH]cc1CN(C)CCN` [Compound 30], for which the IC50 under setting [1] came out at 6590 nM.

On to `CN(CCN)Cc1c[nH]nc1C1CCCC1` [Compound 31], for which, under setting [1], the IC50 was 30 nM.

As to `CNCCN(C)Cc1c[nH]nc1C1CCN(C(=O)Cc2ccccc2)CC1` [Compound 32], the IC50 under setting [1] was determined as 20 nM.

In the case of `CN(CCN)Cc1n[nH]cc1C1CCCCC1` [Compound 33], under setting [1], the IC50 was determined as 20 nM.

As to `CNCCN(C)Cc1c[nH]nc1C1CCN(C(=O)C(C)C)CC1` [Compound 34], the IC50 under setting [1] is 30 nM.

For the compound `CC1CCC(c2c[nH]nc2CN(C)CCN)CC1` (stereo not shown) [Compound 35], the half-maximal inhibitory concentration (IC50) under setting [1] turned out to be 10 nM.

In the case of `CN(CCN)Cc1n[nH]cc1C1CCC(C)(C)CC1` [Compound 36], the IC50 under setting [1] turned out to be 10 nM.

`CC1CCC(c2n[nH]cc2CN(C)CCN)CC1` (stereo not shown) [Compound 37, N^1-methyl-N^1-((3-(4-methylcyclohexyl)-1H-pyrazol-4-yl)methyl)ethane-1,2-diamine]: the concentration for half-maximal inhibition (IC50) under setting [1] was 10 nM.

Regarding `CN(CCN)Cc1c[nH]nc1C1CCC(C)(C)CC1` [Compound 38, N^1-((3-(4,4-dimethylcyclohexyl)-1H-pyrazol-4-yl)methyl)-N^1-methylethane-1,2-diamine], the IC50 under setting [1] worked out at 10 nM.

As for `CNCCN(C)Cc1c[nH]nc1C1CCN(CC(C)C)CC1` [Compound 39, N^1-((3-(1-isobutylpiperidin-4-yl)-1H-pyrazol-4-yl)methyl)-N^1,N^2-dimethylethane-1,2-diamine], under setting [1], the IC50 came out at 10 nM.

Turning to `CNCCN(C)Cc1c[nH]nc1C1CCN(C(=O)CC(C)C)CC1` [Compound 40, 3-methyl-1-(4-(4-((methyl(2-(methylamino)ethyl)amino)methyl)-1H-pyrazol-3-yl)piperidin-1-yl)butan-1-one], the IC50 under setting [1] amounted to 20 nM.

Consider `CNCCN(C)Cc1c[nH]nc1C1CCNCC1` [Compound 42], for which the IC50 under setting [1] was determined as 20 nM.

For the compound `CN(CCN)Cc1n[nH]cc1C1CCC(N2CCOCC2)CC1` (stereo not shown) [Compound 44, N^1-methyl-N^1-((4-(4-morpholinocyclohexyl)-1H-pyrazol-3-yl)methyl)ethane-1,2-diamine], the IC50 under setting [1] was 20 nM.

As to `CN(CCN)Cc1c[nH]nc1C1CCC2(CCCC2)CC1` [Compound 45], the IC50 was less than 100 nM. Also, the IC50 under setting [1] turned out to be 5.6 nM.

For `CNCCN(C)Cc1c[nH]nc1C1CCC2(CCCCC2)CC1` [Compound 46], the IC50 was less than 100 nM. Besides, the IC50 under setting [1] came out at 12.2 nM.

In the case of `CNCCN(C)Cc1cn(C)nc1C1CCC2(CCCC2)CC1` [Compound 47], the IC50 is less than 100 nM. Besides, the IC50 under setting [1] was determined as 17.3 nM.

Take `CNCCN(C)Cc1c[nH]nc1C1CCC2(CCCC2)CC1` [Compound 48]: the IC50 is less than 100 nM. Also, under setting [1], the IC50 is 17.8 nM.

For `CNCCN(C)Cc1cnn(C)c1C1CCC2(CCCC2)CC1` [Compound 49], the IC50 is less than 100 nM. Moreover, under setting [1], the IC50 came to 19.9 nM.

As for `CNCCN(C)Cc1c[nH]nc1C1CCC(C(C)C)CC1` (stereo not shown) [Compound 50], the IC50 was less than 100 nM. Besides, the IC50 under setting [1] came out at 20.6 nM.

Consider `CNCCN(C)Cc1c[nH]nc1C1CCC2(CCCO2)CC1` (stereo not shown) [Compound 51], for which the IC50 was less than 100 nM. Moreover, the IC50 under setting [1] came to 23.9 nM.

For `CNCCN(C)Cc1c[nH]nc1C1CCC(C)(C)CC1` [Compound 52], the IC50 was less than 100 nM. Besides, the IC50 under setting [1] turned out to be 24.3 nM.

As for `CNCCN(C)Cc1c[nH]nc1C1CCC(COC)CC1` (stereo not shown) [Compound 53], the IC50 is less than 100 nM. Under setting [1], the 50% inhibitory concentration (IC50) was found to be 38 nM.

Take `CNCCN(C)Cc1c[nH]nc1C1CCC2(CCOC2)CC1` (stereo not shown) [Compound 54]: the IC50 is less than 100 nM. For the same compound, the half-maximal inhibitory concentration (IC50) under setting [1] came out at 38.2 nM.

With `CNCCN(C)Cc1c[nH]nc1C1CCC(CCOC)CC1` (stereo not shown) [Compound 55], the IC50 is less than 100 nM. In addition, the IC50 under setting [1] amounted to 40.4 nM.

`CNCCN(C)Cc1c[nH]nc1C1CCC(OC(C)C)CC1` (stereo not shown) [Compound 56]: the IC50 was less than 100 nM. Also, the IC50 under setting [1] amounted to 61.8 nM.

Take `CNCCN(C)Cc1c[nH]nc1C1CCC(COC)(COC)CC1` [Compound 57]: the half-inhibitory concentration (IC50) is less than 100 nM. For the same compound, under setting [1], the IC50 was 69.4 nM.

As to `CNCCN(C)Cc1c[nH]nc1C1CCC(OCCOC)CC1` (stereo not shown) [Compound 58], the IC50 is less than 100 nM. For the same compound, the IC50 under setting [1] was 108 nM.

In the case of `CNCCN(C)Cc1c[nH]nc1C1CC(C)(C)OC(C)(C)C1` [Compound 59], the IC50 fell in the range of 101 to 1000 nM. Also, the IC50 under setting [1] was determined as 128 nM.

On to `CNCCN(C)Cc1c[nH]nc1C1CCC(COCCOC)(COCCOC)CC1` [Compound 60], for which the IC50 lay in the range of 101 to 1000 nM. For the same compound, under setting [1], the IC50 came out at 155 nM.

As for `CNCCN(C)Cc1c[nH]nc1C1CCC(COC(C)C)(COC(C)C)CC1` [Compound 61], the 50% inhibitory concentration (IC50) is less than 100 nM. For the same compound, the IC50 under setting [1] is 49.1 nM.

Consider `CNCCN(C)Cc1c[nH]nc1C1CCC2(CCCCC2)OC1` (stereo not shown) [Compound 62], for which the IC50 is less than 100 nM. Moreover, the IC50 under setting [1] was determined as 29 nM.

For the compound `CNCCN(C)Cc1c[nH]nc1C1CCC2(CC1)CC(C)OC(C)C2` (stereo not shown) [Compound 63], the IC50 was less than 100 nM. Besides, under setting [1], the IC50 stood at 12.1 nM.

Consider `CNCCN(C)Cc1c[nH]nc1C1CCC2(CCC(C)(C)CC2)OC1` (stereo not shown) [Compound 65], for which the concentration for half-maximal inhibition (IC50) is less than 100 nM. For the same compound, the IC50 under setting [1] is 41.9 nM.

In the case of `CNCCN(C)Cc1c[nH]nc1C1CCC(Oc2ccccc2)CC1` (stereo not shown) [Compound 67], the IC50 was less than 100 nM. In addition, the IC50 under setting [1] amounted to 18 nM.

As to `CCC(CC)OC1CCC(c2n[nH]cc2CN(C)CCNC)CC1` (stereo not shown) [Compound 70], the concentration for half-maximal inhibition (IC50) is less than 100 nM. Moreover, under setting [1], the IC50 amounted to 44 nM.

With `CNCCN(C)Cc1c[nH]nc1C1CC(COC)C(C)(C)C(COC)C1` (stereo not shown) [Compound 86], the IC50 lay in the range of 3010 to 10000 nM. In addition, under setting [1], the IC50 is 3410 nM.

Take `CCOCC1CC(c2n[nH]cc2CN(C)CCNC)CC(COCC)C1(C)C` (stereo not shown) [Compound 87]: the IC50 lay in the range of 3010 to 10000 nM. Moreover, the IC50 under setting [1] came to 3730 nM.

`CNCCN(C)Cc1c[nH]nc1C1CCC(C)(C)C(C(=O)NCC(C)C)C1` (stereo not shown) [Compound 90]: the IC50 lay in the range of 101 to 1000 nM. For the same compound, under setting [1], the IC50 stood at 122 nM.

Regarding `CNCCN(C)Cc1c[nH]nc1C1CCC(C)(C)C(C(=O)NCCC(C)C)C1` (stereo not shown) [Compound 91], the IC50 was less than 100 nM. Under setting [1], the concentration for half-maximal inhibition (IC50) is 63.1 nM.

As for `CNCCN(C)Cc1c[nH]nc1C1CCC(C)(C)C(C(=O)NCc2ccccc2)C1` (stereo not shown) [Compound 92], the half-maximal inhibitory concentration (IC50) is less than 100 nM. The IC50 under setting [1] stood at 49 nM.

In the case of `CNCCN(C)Cc1c[nH]nc1C1CCC(C)(C)C(C(=O)NCCCOC)C1` (stereo not shown) [Compound 93], the half-inhibitory concentration (IC50) was less than 100 nM. Further, the IC50 under setting [1] came to 71.9 nM.

Regarding `CNCCN(C)Cc1c[nH]nc1C1CCC(C)(C)C(COCC(C)C)C1` (stereo not shown) [Compound 95], the IC50 was less than 100 nM. For the same compound, under setting [1], the IC50 came out at 69.2 nM.
